From ChEMBL document CHEMBL1201862, “PubChem BioAssay data set” (2004)
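How tested: cells in 96-well plates exposed to compound for 48 hours at five concentrations. Abbreviation: GI50, concentration required for 50% inhibition of growth.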 Activity calls are given as the source filed them. No stated cut-off is given here; in the data, active = GI50 up to about 1.1 µM and inactive = higher.

Assays:
Test in all cases: DTP human tumour cell line panel, 48 h
NCI/ADR-RES = tested on: NCI/ADR-RES
NCI-H23 = tested on: NCI-H23
A498 = tested on: A498
LOX IMVI = tested on: LOX IMVI
RPMI-8226 = tested on: RPMI-8226
CCRF-CEM = tested on: CCRF-CEM
OVCAR-8 = tested on: OVCAR-8
MDA-MB-435 = tested on: MDA-MB-435
HCT-116 = tested on: HCT-116
OVCAR-4 = tested on: OVCAR-4
KM12 = tested on: KM12
786-0 = tested on: 786-0
SF-295 = tested on: SF-295
A549 = tested on: A549
HL-60 = tested on: HL-60
BT-549 = tested on: BT-549
SR = tested on: SR
SNB-19 = tested on: SNB-19
EKVX = tested on: EKVX
SF-539 = tested on: SF-539
MDA-MB-231 = tested on: MDA-MB-231
HOP-62 = tested on: HOP-62
RXF 393 = tested on: RXF 393
U-251 = tested on: U-251
SK-MEL-28 = tested on: SK-MEL-28
SK-MEL-5 = tested on: SK-MEL-5
MCF7 = tested on: MCF7
ACHN = tested on: ACHN
UACC-257 = tested on: UACC-257
CAKI-1 = tested on: CAKI-1
HCT-15 = tested on: HCT-15
PC-3 = tested on: PC-3
NCI-H226 = tested on: NCI-H226
UACC-62 = tested on: UACC-62
OVCAR-5 = tested on: OVCAR-5
COLO 205 = tested on: COLO 205
SK-OV-3 = tested on: SK-OV-3
SNB-75 = tested on: SNB-75
K562 = tested on: K562
HOP-92 = tested on: HOP-92
Hs-578T = tested on: Hs-578T
SF-268 = tested on: SF-268
SW-620 = tested on: SW-620
IGROV-1 = tested on: IGROV-1
T47D = tested on: T47D
DU-145 = tested on: DU-145
MDA-N = tested on: MDA-N
SK-MEL-2 = tested on: SK-MEL-2
HT-29 = tested on: HT-29
SN12C = tested on: SN12C
M14 = tested on: M14
TK-10 = tested on: TK-10
NCI-H460 = tested on: NCI-H460
MOLT-4 = tested on: MOLT-4
OVCAR-3 = tested on: OVCAR-3
UO-31 = tested on: UO-31
HCC 2998 = tested on: HCC 2998

N=C(N)SCCc1ccncc1
GI50 (NCI/ADR-RES): > 100 µM (inactive)
GI50 (NCI-H23): > 100 µM (inactive)
GI50 (A498): > 100 µM (inactive)
GI50 (LOX IMVI): > 100 µM (inactive)
GI50 (RPMI-8226): > 100 µM (inactive)
GI50 (CCRF-CEM): 65.8 µM (inactive)
GI50 (OVCAR-8): > 100 µM (inactive)
GI50 (MDA-MB-435): > 100 µM (inactive)
GI50 (HCT-116): > 100 µM (inactive)
GI50 (OVCAR-4): > 100 µM (inactive)
GI50 (KM12): > 100 µM (inactive)
GI50 (786-0): > 100 µM (inactive)
GI50 (SF-295): > 100 µM (inactive)
GI50 (A549): > 100 µM (inactive)
GI50 (HL-60): > 100 µM (inactive)
GI50 (BT-549): > 100 µM (inactive)
GI50 (SR): > 100 µM (inactive)
GI50 (SNB-19): > 100 µM (inactive)
GI50 (EKVX): > 100 µM (inactive)
GI50 (SF-539): > 100 µM (inactive)
GI50 (MDA-MB-231): > 100 µM (inactive)
GI50 (HOP-62): > 100 µM (inactive)
GI50 (RXF 393): > 100 µM (inactive)
GI50 (U-251): > 100 µM (inactive)
GI50 (SK-MEL-28): > 100 µM (inactive)
GI50 (SK-MEL-5): > 100 µM (inactive)
GI50 (MCF7): > 100 µM (inactive)
GI50 (ACHN): > 100 µM (inactive)
GI50 (UACC-257): > 100 µM (inactive)
GI50 (CAKI-1): > 100 µM (inactive)
GI50 (HCT-15): > 100 µM
GI50 (PC-3): > 100 µM (inactive)
GI50 (NCI-H226): > 100 µM (inactive)
GI50 (UACC-62): > 100 µM (inactive)
GI50 (OVCAR-5): > 100 µM (inactive)
GI50 (COLO 205): > 100 µM (inactive)
GI50 (SK-OV-3): > 100 µM (inactive)
GI50 (SNB-75): > 100 µM (inactive)
GI50 (K562): > 100 µM (inactive)
GI50 (HOP-92): > 100 µM (inactive)
GI50 (Hs-578T): > 100 µM (inactive)
GI50 (SF-268): > 100 µM (inactive)
GI50 (SW-620): > 100 µM (inactive)
GI50 (IGROV-1): > 100 µM (inactive)
GI50 (T47D): > 100 µM (inactive)
GI50 (DU-145): > 100 µM (inactive)
GI50 (MDA-N): > 100 µM (inactive)
GI50 (SK-MEL-2): > 100 µM (inactive)
GI50 (HT-29): > 100 µM (inactive)
GI50 (SN12C): > 100 µM (inactive)
GI50 (M14): > 100 µM (inactive)
GI50 (TK-10): > 100 µM (inactive)
GI50 (NCI-H460): > 100 µM (inactive)
GI50 (MOLT-4): > 100 µM (inactive)
GI50 (OVCAR-3): > 100 µM (inactive)
GI50 (UO-31): > 100 µM (inactive)

O=C1/C(=C\c2ccc(Br)cc2)CCCc2ccccc21
GI50 (NCI/ADR-RES): 13.4 µM (inactive)
GI50 (NCI-H23): 17.1 µM (inactive)
GI50 (A498): 23.8 µM (inactive)
GI50 (LOX IMVI): 16.3 µM (inactive)
GI50 (RPMI-8226): 17.1 µM (inactive)
GI50 (CCRF-CEM): 19.7 µM (inactive)
GI50 (OVCAR-8): 15 µM (inactive)
GI50 (MDA-MB-435): 19.2 µM (inactive)
GI50 (HCT-116): 12.4 µM (inactive)
GI50 (OVCAR-4): 12.3 µM (inactive)
GI50 (KM12): 15.6 µM (inactive)
GI50 (786-0): 14.6 µM (inactive)
GI50 (SF-295): 22 µM (inactive)
GI50 (A549): 31.6 µM (inactive)
GI50 (HL-60): 14.2 µM (inactive)
GI50 (BT-549): 24 µM (inactive)
GI50 (SR): 23 µM (inactive)
GI50 (SNB-19): 16.6 µM (inactive)
GI50 (EKVX): 17.5 µM (inactive)
GI50 (SF-539): 15.5 µM (inactive)
GI50 (MDA-MB-231): 18.5 µM (inactive)
GI50 (HOP-62): 46.5 µM (inactive)
GI50 (RXF 393): 21 µM (inactive)
GI50 (U-251): 15 µM (inactive)
GI50 (SK-MEL-28): 18.9 µM (inactive)
GI50 (MCF7): 19.5 µM (inactive)
GI50 (ACHN): 16.9 µM (inactive)
GI50 (HCC 2998): 14.7 µM (inactive)
GI50 (UACC-257): 19.5 µM (inactive)
GI50 (CAKI-1): 29.3 µM (inactive)
GI50 (HCT-15): 12.4 µM
GI50 (PC-3): 20.3 µM (inactive)
GI50 (NCI-H226): 14.4 µM (inactive)
GI50 (UACC-62): 13.3 µM (inactive)
GI50 (OVCAR-5): 38.6 µM (inactive)
GI50 (COLO 205): 17.9 µM (inactive)
GI50 (SK-OV-3): 35.6 µM (inactive)
GI50 (SNB-75): 18.8 µM (inactive)
GI50 (K562): 41.8 µM (inactive)
GI50 (HOP-92): 19.1 µM (inactive)
GI50 (Hs-578T): 17.3 µM (inactive)
GI50 (SF-268): 16.9 µM (inactive)
GI50 (SW-620): 16.9 µM (inactive)
GI50 (IGROV-1): 16.4 µM (inactive)
GI50 (T47D): 10.5 µM (inactive)
GI50 (DU-145): 15.5 µM (inactive)
GI50 (MDA-N): 17.4 µM (inactive)
GI50 (SK-MEL-2): 19.1 µM (inactive)
GI50 (HT-29): 15 µM (inactive)
GI50 (SN12C): 16.5 µM (inactive)
GI50 (M14): 29.6 µM (inactive)
GI50 (TK-10): 18.7 µM (inactive)
GI50 (NCI-H460): 17 µM (inactive)
GI50 (MOLT-4): 18.1 µM (inactive)
GI50 (OVCAR-3): 20.8 µM (inactive)
GI50 (UO-31): 14.6 µM (inactive)
